Tests used:
[1] = system: hiPS cell line SBI #SC101A-1; test: hPSC culture, microscopic analysis of morphological growth pattern and proliferation; assay type: cell-based, human; conditions: defined, feeder-free culture on vitronectin; Example 1 medium containing only the named factor(s); no FGF-2
Protocol: The culture vessel was coated with 0.5 μg/cm^2 of recombinant human vitronectin as ECM. For this, 100 μl of a diluted vitronectin solution per cm^2 of culture vessel surface is applied to the culture vessel with. The coated culture vessel is left for 2 hours at room temperature. The vitronectin solution was aspirated just before seeding the cells.
The cell line used in this experiment is the human foreskin fibroblast derived hiPS cell line SBI #SC101A-1 (obtainable from System Biosciences (SBI), Palo Alto, under the defined reference number).
The stem cell culture medium was prepared as described in Example 1. For cryopreserved cells, a ROCK-Inhibitor (10 μM Y-27632 or 2 μM Thiazovivin) is added to the stem cell culture medium. Alternatively, for existing proliferating cultures a clump passage was performed as described in Example 3 below.
The hPSCs were seeded in a 1:2 to 1:3 ratio (relative to the volume of the tissue culture vessel) into the ECM coated tissue culture vessel using an appropriate amount of culture medium. For example, 2-3 ml per well are used for 6-well plates and 15-25 ml for T-75 flasks.
After plating, the subcultured hPSCs were allowed to attach overnight (12-24 hours).
A medium change was performed: the stem cell culture medium including non-attached cells was aspirated, washed once with Dulbecco's PBS, w/o Ca^2+/Mg^2+ and the cells were provided with fresh culture medium (w/o ROCK-Inhibitors).
A media change was performed every 1-3 days.
The stem cell culture medium was aspirated and the hPSCs were washed twice with Dulbecco's PBS, w/o Ca^2+/Mg^2+. Next, 200-300 μl/cm^2 of dissociation buffer was added and the solution was incubated for 6-10 minutes in the incubator at 37° C. and 5% CO2. The dissociation buffer was carefully aspirated and 1-5 ml of fresh culture medium was added. The colonies were flushed away from the surface using a serological pipet. In order to maintain cell clumps of sufficient size flushing of more than 4-5 times was avoided. Then, cell clumps were dispensed into new ECM-coated culture vessels with fresh stem cell culture medium and the culture was continued according to the cell attachment step (step 2.3) of Example 2.
Induced pluripotent stem cells were cultured in the presence of the stem cell culture medium according to Example 1 without trimipramine in order to reproduce published observations that activin a on its own cannot fully support undifferentiated maintenance of most hPSC lines (Vallier et al., 2005; Xiao et al., 2006). Initiation of the hPSC culture was performed according to Example 2, followed by subculturing the cells according to Example 3.
It was also aimed to reproduce the published partial self-renewal support capabilities of trimipramine in human pluripotent stem cells (Kumagai et al., 2013). […]

[2] = cited from earlier work; for biological half-life: under cell culture conditions
stem cells = conditions: cultured in the absence of FGF2; cited from earlier work

For CC(CN(C)C)CN1c2ccccc2CCc2ccccc21 (centres unmarked) [trimipramine], the “cell proliferation / expansion of hPSC” value [1] is given as “not sufficient to effectively expand the human pluripotent stem cells”, the “maintenance of undifferentiated state (morphological phenotype)” value [1] is given as “able to maintain the prototypical pluripotent morphological phenotype” and the half-life [2] is given as 23 h. The “expression of pluripotency markers SSEA-3, SSEA-4 TRA-1-60, TRA-1-81 and OCT4” value (shortened to “expression”) (stem cells) was “induce the expression of known pluripotency markers”.

For CCN(CC)C(C)CN1c2ccccc2Sc2ccccc21 (centres unmarked) [profenamine], the “expression” value (stem cells) is listed as “induce the expression of known pluripotency markers”.

For “TGF-β1: growth factor (ALK5 ligand) traditionally used in hPSC media”, the biological half-life [2] is listed as 50 minutes.

For CC(CN1c2ccccc2Sc2ccccc21)N(C)C (centres unmarked) [promethazine], the “expression” value (stem cells) is listed as “induce the expression of known pluripotency markers”.

In the case of CCN(CC)CCCC(C)Nc1c2ccc(Cl)cc2nc2ccc(OC)cc12 (centres unmarked) [mepacrine], the “expression” value (stem cells) is listed as “induce the expression of known pluripotency markers”.

In the case of “FGF-2: growth factor (FGFR ligand) traditionally used in hPSC media”, the biological half-life [2] is given as 5-7 hours.

B1: activin a: homodimer of the inhibin beta A subunit (UniProtKB P08476), member of the TGF-β superfamily (protein, UniProt P08476 311-426, looked up)
Inhibin beta A chain: GLECDGKVNICCKKQFFVSFKDIGWNDWIIAPSGYHANYCEGECPSHIAGTSGSSLSFHSTVINHYRMRGHSPFANLKSCCVPTKLRPMSMLYYDDGQNIIKKDIQNMIVEECGCS
modifications: Inhibin beta A chain
notes: homodimer of the inhibin beta A subunit (UniProtKB P08476), member of the TGF-β superfamily
With B1 the “cell proliferation / expansion of hPSC” value [1] was “significant cell proliferation” and the “maintenance of undifferentiated state (morphological phenotype)” value [1] was “not able to robustly support the maintenance of the tested hPSC line in an undifferentiated state”.

Source: patent US12234484B2, “Culture medium for pluripotent stem cells” (PROMOCELL GMBH, priority 2017, dated 2025)
